From ChEMBL document CHEMBL6153079, “Discovery of noncovalent diaminopyrimidine-based Inhibitors for glioblastoma via a dual FAK/DNA targeting strategy” (Eur J Med Chem, 2025)
pIC50: −log10 of the molar value. Active and inactive are the calls of the source. The calls are words filed in the database; no cut-off is given here.

What was measured:
U-251 = test: Antiproliferative activity against human U-251 assessed as cell viability incubated for 48 hrs by MTT assay; type: functional, cell-based; conditions: U-251, 48 h
U-87 MG [1] = test: Antiproliferative activity against human U-87 MG assessed as cell viability incubated for 48 hrs by MTT assay; type: functional, cell-based, U-87MG ATCC
Focal adhesion kinase 1 [2] = target: T1, Focal adhesion kinase 1 (Homo sapiens, UniProt Q05397); test: Inhibition of FAK (unknown origin) at 10 nM relative to control
[3] = Cytotoxicity against human LO2 assessed as cell viability incubated for 48 hrs by MTT assay; type: toxicity, cell-based, L02; conditions: LO2 cells
[4] = Cytotoxicity against human 2BS assessed as cell viability incubated for 48 hrs by MTT assay; type: toxicity, cell-based; conditions: 2BS cells
[5] = Distribution coefficient, logD of compound in n-Octanol/water at pH 7.4; type: physicochemical
U-87 MG [6] = test: Induction of DNA damage in human U-87 MG cells assessed as comet tail moment at 0.1 to 2 uM incubated for 2.5 to 3 hrs by comet assay; type: functional; conditions: time 2.5-3 hrs
U-87 MG [7] = test: Inhibition of colony formation in human U-87 MG cells at 0.005 uM incubated for 14 days and subsequent media replacement with compound for every 3 days by crystal violet staining based analysis; type: functional, cell-based; conditions: U-87MG ATCC, time 14.0 day
U-87 MG [8] = test: Inhibition of colony formation in human U-87 MG cells at 0.005 uM incubated for 14 days and subsequent media replacement with compound for every 3 days in presence of Chlorambucil by crystal violet staining based analysis; type: functional, cell-based; conditions: U-87MG ATCC, time 14.0 day
U-87 MG [9] = test: Antiproliferative activity against human U-87 MG assessed as inhibition of cell growth at 0.025 to 0.1 uM by clonogenic assay relative to control; type: functional, U-87MG ATCC; conditions: dose 0.025-0.1 µM
U-87 MG [10] = test: Antiproliferative activity against human U-87 MG assessed as inhibition of cell growth at 0.025 to 0.1 uM in presence of Chlorambucil by clonogenic assay relative to control; type: functional, U-87MG ATCC; conditions: dose 0.025-0.1 µM
U-87 MG [11] = test: Antiproliferative activity against human U-87 MG assessed as inhibition of cell growth at 0.005 uM by clonogenic assay relative to control; type: functional, U-87MG ATCC
U-87 MG [12] = test: Antiproliferative activity against human U-87 MG assessed as inhibition of cell growth at 0.005 uM in presence of Chlorambucil by clonogenic assay relative to control; type: functional, U-87MG ATCC
U-87 MG [13] = test: Inhibition of cell migration in human U-87 MG cells assessed as […] in migration distance at 0.1 to 1 uM incubated for 24 to 48 hrs by wound healing assay; type: functional, cell-based; conditions: U-87MG ATCC, dose 0.1-1 µM, time lower 24.0 hrs, time upper […]
U-87 MG [14] = test: Inhibition of cell migration in human U-87 MG cells assessed as […] at 0.1 to 1 uM by wound healing assay; type: functional, cell-based; conditions: U-87MG ATCC, dose 0.1-1 µM, time lower 24.0 hrs, time upper […]
Focal adhesion kinase 1 [15] = target: T1, Focal adhesion kinase 1; test: Inhibition of FAK phosphorylation in human U-87 MG cells at 0.05 to 0.4 uM incubated for 24 hrs by Western blot analysis; type: cell-based; conditions: dose 0.05-0.4 µM
U-87 MG [16] = test: Inhibition of AKT phosphorylation in human U-87 MG cells at 0.05 to 0.4 uM incubated for 24 hrs by Western blot analysis; type: cell-based; conditions: dose 0.05-0.4 µM
U-87 MG [17] = test: Inhibition of ERK1/2 phosphorylation in human U-87 MG cells at 0.05 to 0.4 uM incubated for 24 hrs by Western blot analysis; type: cell-based; conditions: dose 0.05-0.4 µM
U-87 MG [18] = test: Induction of apoptosis in human U-87 MG cells assessed as viable cells at 2 uM measured upto 24 hrs by Annexin V-FITC/PI staining based flow cytometry analysis (reference value: 98.4%); type: functional, U-87MG ATCC; conditions: read-out: Activity
U-87 MG [19] = test: Induction of apoptosis in human U-87 MG cells assessed as early apoptotic cells at 2 uM measured upto 24 hrs by Annexin V-FITC/PI staining based flow cytometry analysis (reference value: 0.45%); type: functional, U-87MG ATCC
U-87 MG [20] = test: Induction of apoptosis in human U-87 MG cells assessed as late apoptotic cells at 2 uM measured upto 24 hrs by Annexin V-FITC/PI staining based flow cytometry analysis (reference value: 0.54%); type: functional, U-87MG ATCC
U-87 MG [21] = test: Induction of apoptosis in human U-87 MG cells assessed as necrotic cells at 2 uM measured upto 24 hrs by Annexin V-FITC/PI staining based flow cytometry analysis (reference value: 0.62%); type: functional, U-87MG ATCC
U-87 MG [22] = test: Induction of apoptosis in human U-87 MG cells assessed as viable cells at 4 uM measured upto 24 hrs by Annexin V-FITC/PI staining based flow cytometry analysis (reference value: 98.4%); type: functional, U-87MG ATCC; conditions: read-out: Activity
U-87 MG [23] = test: Induction of apoptosis in human U-87 MG cells assessed as early apoptotic cells at 4 uM measured upto 24 hrs by Annexin V-FITC/PI staining based flow cytometry analysis (reference value: 0.45%); type: functional, U-87MG ATCC
U-87 MG [24] = test: Induction of apoptosis in human U-87 MG cells assessed as late apoptotic cells at 4 uM measured upto 24 hrs by Annexin V-FITC/PI staining based flow cytometry analysis (reference value: 0.54%); type: functional, U-87MG ATCC
U-87 MG [25] = test: Induction of apoptosis in human U-87 MG cells assessed as necrotic cells at 4 uM measured upto 24 hrs by Annexin V-FITC/PI staining based flow cytometry analysis (reference value: 0.62%); type: functional, U-87MG ATCC
U-87 MG [26] = test: Induction of apoptosis in human U-87 MG cells assessed as viable cells at 8 uM measured upto 24 hrs by Annexin V-FITC/PI staining based flow cytometry analysis (reference value: 98.4%); type: functional, U-87MG ATCC; conditions: read-out: Activity
U-87 MG [27] = test: Induction of apoptosis in human U-87 MG cells assessed as early apoptotic cells at 8 uM measured upto 24 hrs by Annexin V-FITC/PI staining based flow cytometry analysis (reference value: 0.45%); type: functional, U-87MG ATCC
U-87 MG [28] = test: Induction of apoptosis in human U-87 MG cells assessed as late apoptotic cells at 8 uM measured upto 24 hrs by Annexin V-FITC/PI staining based flow cytometry analysis (reference value: 0.54%); type: functional, U-87MG ATCC
U-87 MG [29] = test: Induction of apoptosis in human U-87 MG cells assessed as necrotic cells at 8 uM measured upto 24 hrs by Annexin V-FITC/PI staining based flow cytometry analysis (reference value: 0.62%); type: functional, U-87MG ATCC
U-87 MG [30] = test: Induction of apoptosis in human U-87 MG cells assessed as […] in cleaved caspase-3 level at 0.05 to 0.8 uM incubated for 24 hrs by Western blot analysis; type: functional, cell-based; conditions: U-87MG ATCC, dose 0.05-0.8 µM
U-87 MG [31] = test: Induction of apoptosis in human U-87 MG cells assessed as […] in Bcl-xL level at 0.05 to 0.8 uM incubated for 24 hrs by Western blot analysis; type: functional, cell-based; conditions: U-87MG ATCC, dose 0.05-0.8 µM
U-87 MG [32] = test: Induction of cell cycle arrest in human U-87 MG cells assessed as accumulation of cells at G0/G1 phase at 2 uM by propidium Iodide staining based flow cytometry analysis (reference value: 80.68%); type: functional, U-87MG ATCC
U-87 MG [33] = test: Induction of cell cycle arrest in human U-87 MG cells assessed as accumulation of cells at G2M phase at 2 uM by propidium Iodide staining based flow cytometry analysis (reference value: 9.73%); type: functional, U-87MG ATCC
U-87 MG [34] = test: Induction of cell cycle arrest in human U-87 MG cells assessed as accumulation of cells at […] at 2 uM by propidium Iodide staining based flow cytometry analysis (reference value: 1.67%); type: functional, U-87MG ATCC
U-87 MG [35] = test: Induction of cell cycle arrest in human U-87 MG cells assessed as accumulation of cells at S phase at 2 uM by propidium Iodide staining based flow cytometry analysis (reference value: 9.59%); type: functional, U-87MG ATCC
U-87 MG [36] = test: Induction of cell cycle arrest in human U-87 MG cells assessed as accumulation of cells at G0/G1 phase at 4 uM by propidium Iodide staining based flow cytometry analysis (reference value: 80.68%); type: functional, U-87MG ATCC
U-87 MG [37] = test: Induction of cell cycle arrest in human U-87 MG cells assessed as accumulation of cells at G2M phase at 4 uM by propidium Iodide staining based flow cytometry analysis (reference value: 9.73%); type: functional, U-87MG ATCC
U-87 MG [38] = test: Induction of cell cycle arrest in human U-87 MG cells assessed as accumulation of cells at […] at 4 uM by propidium Iodide staining based flow cytometry analysis (reference value: 1.67%); type: functional, U-87MG ATCC
U-87 MG [39] = test: Induction of cell cycle arrest in human U-87 MG cells assessed as accumulation of cells at S phase at 4 uM by propidium Iodide staining based flow cytometry analysis (reference value: 9.59%); type: functional, U-87MG ATCC
U-87 MG [40] = test: Induction of cell cycle arrest in human U-87 MG cells assessed as accumulation of cells at G0/G1 phase at 8 uM by propidium Iodide staining based flow cytometry analysis (reference value: 80.68%); type: functional, U-87MG ATCC
U-87 MG [41] = test: Induction of cell cycle arrest in human U-87 MG cells assessed as accumulation of cells at G2M phase at 8 uM by propidium Iodide staining based flow cytometry analysis (reference value: 9.73%); type: functional, U-87MG ATCC
U-87 MG [42] = test: Induction of cell cycle arrest in human U-87 MG cells assessed as accumulation of cells at […] at 8 uM by propidium Iodide staining based flow cytometry analysis (reference value: 1.67%); type: functional, U-87MG ATCC
U-87 MG [43] = test: Induction of cell cycle arrest in human U-87 MG cells assessed as accumulation of cells at S phase at 8 uM by propidium Iodide staining based flow cytometry analysis (reference value: 9.59%); type: functional, U-87MG ATCC
U-87 MG [44] = test: Antitumor activity against human U-87 MG cells xenografted in BALB/c mouse assessed as inhibition of tumor growth at 25 mg/kg, ip administered once daily for 15 days; type: functional, U-87MG ATCC; conditions: 360 h, time 15 day, read-out: TGI
[45] = Toxicity in BALB/c mouse implanted with human U-87 MG cells assessed as lung damage at 25 mg/kg, ip administered once daily for 15 days by H and E staining based analysis; type: organism-based; conditions: in vivo, 360 h, time 15 day
[46] = Toxicity in BALB/c mouse implanted with human U-87 MG cells assessed as spleen damage at 25 mg/kg, ip administered once daily for 15 days by H and E staining based analysis; type: organism-based; conditions: in vivo, 360 h, time 15 day

T1 sequence (Q05397 2-1052 limits assumed): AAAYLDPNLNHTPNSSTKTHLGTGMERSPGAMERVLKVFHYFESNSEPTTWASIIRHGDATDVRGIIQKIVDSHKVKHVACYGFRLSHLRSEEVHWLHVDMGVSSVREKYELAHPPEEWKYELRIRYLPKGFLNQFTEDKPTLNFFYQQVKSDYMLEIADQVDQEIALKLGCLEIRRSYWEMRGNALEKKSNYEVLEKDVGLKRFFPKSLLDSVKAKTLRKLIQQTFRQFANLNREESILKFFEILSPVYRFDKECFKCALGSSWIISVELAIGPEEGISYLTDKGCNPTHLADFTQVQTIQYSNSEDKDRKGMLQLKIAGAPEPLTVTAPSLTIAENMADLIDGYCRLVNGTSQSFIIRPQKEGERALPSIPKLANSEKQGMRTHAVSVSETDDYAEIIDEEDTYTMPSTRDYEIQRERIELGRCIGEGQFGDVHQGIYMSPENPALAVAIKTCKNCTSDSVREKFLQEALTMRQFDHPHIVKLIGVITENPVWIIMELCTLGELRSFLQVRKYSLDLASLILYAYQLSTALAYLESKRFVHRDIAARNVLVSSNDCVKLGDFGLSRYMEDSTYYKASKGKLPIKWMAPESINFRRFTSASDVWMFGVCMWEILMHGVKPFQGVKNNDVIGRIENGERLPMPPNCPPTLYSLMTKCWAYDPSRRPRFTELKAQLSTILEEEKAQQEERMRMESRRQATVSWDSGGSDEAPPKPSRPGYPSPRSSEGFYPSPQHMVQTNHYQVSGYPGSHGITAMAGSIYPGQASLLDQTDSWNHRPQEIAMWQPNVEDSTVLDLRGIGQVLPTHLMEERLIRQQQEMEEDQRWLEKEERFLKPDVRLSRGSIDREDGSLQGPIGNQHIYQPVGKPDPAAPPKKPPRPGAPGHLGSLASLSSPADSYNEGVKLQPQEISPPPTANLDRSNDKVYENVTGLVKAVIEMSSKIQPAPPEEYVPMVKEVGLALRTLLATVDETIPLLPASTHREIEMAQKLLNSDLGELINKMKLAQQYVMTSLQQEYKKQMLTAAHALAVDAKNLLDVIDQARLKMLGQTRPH

With `CNC(=O)c1ccccc1Nc1nc(Nc2ccc(N3CCOCC3)cc2OC)ncc1Cl` the pIC50 (U-251) was 5.23, the pIC50 (U-87 MG [1]) was 5.55 and the inhibition (Focal adhesion kinase 1 [2]) was 78.6%. For the same molecule, the IC50 at 48 h [3] was 4.14 µM, the IC50 at 48 h [4] was 42.8 µM and the logD [5] was 3.49. For the same molecule, the Activity (U-87 MG [6]; U-87MG ATCC) was “inactive”, the inhibition (U-87 MG [7]) was “inactive” and the inhibition (U-87 MG [8]) was “inactive”. The “inhibition (INH)” value (U-87 MG [9]) was 60%, the “inhibition (INH)” value (U-87 MG [10]) was 61% and the inhibition at 0.005 µM (U-87 MG [11]) was ~8%. The inhibition at 0.005 µM (U-87 MG [12]) was 12%, the inhibition (U-87 MG [13]) was “Active” and the inhibition (U-87 MG [14]) was “Time-dependent-effect”. The inhibition (Focal adhesion kinase 1 [15]) was “inactive”, the inhibition (U-87 MG [16]) was “inactive” and the inhibition (U-87 MG [17]) was “inactive”. The viability at 2 µM (U-87 MG [18]) was 84.3%, the Activity (U-87 MG [19]) was 2.78% and the Activity (U-87 MG [20]) was 9.29%. The Activity (U-87 MG [21]) was 3.64%, the viability at 4 µM (U-87 MG [22]) was 78.2% and the Activity (U-87 MG [23]) was 11%. For the same molecule, the Activity (U-87 MG [24]) was 4.35%, the Activity (U-87 MG [25]) was 6.39% and the viability at 8 µM (U-87 MG [26]) was 61.2%. It also gave an Activity (U-87 MG [27]) of 26.2%, an Activity (U-87 MG [28]) of 12.3% and an Activity (U-87 MG [29]) of 0.31%. The Activity (U-87 MG [30]) was “Active”, the Activity (U-87 MG [31]) was “Active” and the Activity (U-87 MG [32]) was 72.55%. It also gave an Activity (U-87 MG [33]) of 14.62%, an Activity (U-87 MG [34]) of 1.75% and an Activity (U-87 MG [35]) of 12.83%. The Activity (U-87 MG [36]) was 56.37%, the Activity (U-87 MG [37]) was 23.91% and the Activity (U-87 MG [38]) was 1.81%. It also gave an Activity (U-87 MG [39]) of 19.73%, an Activity (U-87 MG [40]) of 33.93% and an Activity (U-87 MG [41]) of 62.41%. It also gave an Activity (U-87 MG [42]) of 1.84% and an Activity (U-87 MG [43]) of 3.66%.
With `Cn1nnc2c(C(N)=O)ncn2c1=O` [TEMOZOLOMIDE] the Activity (U-87 MG [6]) was 11.6, the inhibition in vivo at 25 mg/kg (U-87 MG [44]) was 31.4% and the Activity [45] was “Non-toxic”. For the same molecule, the Activity [46] was “Non-toxic”.
